pKi: −log10 of the molar value.

This test concerns the target T1, glucocorticoid receptor (Homo sapiens, UniProt P04150).
T1 construct: endogenous in cells
T1 sequence (P04150 1-777): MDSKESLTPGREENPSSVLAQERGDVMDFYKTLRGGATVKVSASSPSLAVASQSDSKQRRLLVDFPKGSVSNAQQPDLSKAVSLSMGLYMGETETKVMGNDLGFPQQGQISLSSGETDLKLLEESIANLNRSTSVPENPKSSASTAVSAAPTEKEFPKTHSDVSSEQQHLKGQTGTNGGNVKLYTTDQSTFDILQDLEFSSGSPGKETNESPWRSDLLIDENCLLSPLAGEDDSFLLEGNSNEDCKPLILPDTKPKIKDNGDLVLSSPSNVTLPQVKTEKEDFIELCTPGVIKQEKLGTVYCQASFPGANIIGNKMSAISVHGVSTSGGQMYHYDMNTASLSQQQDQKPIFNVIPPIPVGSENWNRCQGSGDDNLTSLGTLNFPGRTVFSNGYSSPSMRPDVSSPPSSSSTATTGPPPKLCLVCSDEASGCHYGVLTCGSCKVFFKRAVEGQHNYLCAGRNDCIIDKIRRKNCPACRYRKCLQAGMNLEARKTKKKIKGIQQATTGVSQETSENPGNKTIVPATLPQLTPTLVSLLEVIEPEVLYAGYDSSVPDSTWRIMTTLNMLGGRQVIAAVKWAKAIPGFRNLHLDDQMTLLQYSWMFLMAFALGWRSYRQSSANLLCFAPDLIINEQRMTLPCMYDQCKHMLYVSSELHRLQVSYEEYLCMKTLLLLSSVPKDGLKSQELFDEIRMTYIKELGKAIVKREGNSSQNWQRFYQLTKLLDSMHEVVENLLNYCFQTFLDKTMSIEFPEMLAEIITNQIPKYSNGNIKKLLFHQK
Briefly: Ligand binding assay (GR BIND). The method in brief: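 Cytosol from freeze–thawed cells in TEGM (pH 7.2, 10 mM molybdate) was incubated overnight at 4 °C with compound and [3H]-dexamethasone trace (added as 6 nM solution), 2% EtOH final. Bound ligand was captured on hydroxylapatite, filtered, washed and scintillation counted. Values were calculated with dexamethasone as reference.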
The compound `C[C@]12Cc3cnn(-c4ccc(F)cc4)c3C=C1CC[C@@H]2CN(CC1CC1)S(=O)(=O)/C=C/c1ccccc1` [Example 13, (E)-N-(cyclopropylmethyl)-N-{[(4αR,5S)-1-(4-fluorophenyl)-4α-methyl-1,4,4α,5,6,7-hexahydrocyclopenta[f]indazol-5-yl]methyl}-2-phenylethylenesulfonamide] gave a pKi of 9.22.

The compound `CNC(=O)Nc1ccc(S(=O)(=O)N(CC2CC2)C[C@H]2CCC3=Cc4c(cnn4-c4ccc(F)cc4)C[C@@]32C)c(Cl)c1` [Example 14, 2-chloro-N-(cyclopropylmethyl)-N-{[(4αR,5S)-1-(4-fluorophenyl)-4α-methyl-1,4,4α,5,6,7-hexahydrocyclopenta[f]indazol-5-yl]methyl}-4-{[(methylamino)carbonyl]amino}-benzenesulfonamide] gave a pKi of 8.80.

As to `C[C@]12Cc3cnn(-c4ccc(F)cc4)c3C=C1CC[C@@H]2CN(CC1CC1)S(=O)(=O)c1ccc(F)c(Cl)c1` [Example 15, 3-chloro-N-(cyclopropylmethyl)-4-fluoro-N-{[(4αR,5S)-1-(4-fluorophenyl)-4α-methyl-1,4,4α,5,6,7-hexahydrocyclopenta[f]indazol-5-yl]methyl}benzenesulfonamide], the negative logarithm of the Ki (pKi) is 8.74.

`C[C@]12Cc3cnn(-c4ccc(F)cc4)c3C=C1CC[C@@H]2CN(CCC#N)S(=O)(=O)c1ccccc1F` [Example 16, N-(2-cyanoethyl)-2-fluoro-N-{[(4αR,5S)-1-(4-fluorophenyl)-4α-methyl-1,4,4α,5,6,7-hexahydrocyclopenta[f]indazol-5-yl]methyl}benzenesulfonamide] had a pKi of 8.52.

As to `C[C@]12Cc3cnn(-c4ccc(F)cc4)c3C=C1CC[C@@H]2CN(CCO)S(=O)(=O)c1ccccc1F` [Example 17, 2-fluoro-N-{[(4αR,5S)-1-(4-fluorophenyl)-4α-methyl-1,4,4α,5,6,7-hexahydrocyclopenta[f]indazol-5-yl]methyl}-N-(2-hydroxyethyl)benzenesulfonamide], the pKi is 8.68.

As to `COC(=O)c1ccccc1S(=O)(=O)N(CC1CC1)C[C@H]1CCC2=Cc3c(cnn3-c3ccc(F)cc3)C[C@@]21C` [Example 18, methyl 2-[((cyclopropylmethyl){[(4αR,5S)-1-(4-fluorophenyl)-4α-methyl-1,4,4α,5,6,7-hexahydrocyclopenta[f]indazol-5 yl]methyl}amino)sulfonyl]benzoate], the negative-log Ki (pKi) is 9.10.

`C[C@]12Cc3cnn(-c4ccc(F)cc4)c3C=C1CC[C@@H]2CN(CCO)S(=O)(=O)c1ccc(F)c(Cl)c1` [Example 19, 3-chloro-4-fluoro-N-{[(4αR,5S)-1-(4-fluorophenyl)-4α-methyl-1,4,4α,5,6,7-hexahydrocyclopenta[f]indazol-5-yl]methyl}-N-(2-hydroxyethyl)benzenesulfonamide] gave a pKi of 8.40.

`C[C@]12Cc3cnn(-c4ccc(F)cc4)c3C=C1CC[C@@H]2CN(CC#N)S(=O)(=O)c1ccc(F)c(Cl)c1` [Example 20, 3-chloro-N-(cyanomethyl)-4-fluoro-N-{[(4αR,5S)-1-(4-fluorophenyl)-4α-methyl-1,4,4α,5,6,7-hexahydrocyclopenta[f]indazol-5-yl]methyl}benzenesulfonamide] showed a negative-log Ki (pKi) of 8.66.

In the case of `C[C@]12Cc3cnn(-c4ccc(F)cc4)c3C=C1CC[C@@H]2CN(CC1CC1)S(=O)(=O)Cc1ccccc1` [Example 21, N-(cyclopropylmethyl)-N-{[(4αR,5S)-1-(4-fluorophenyl)-4α-methyl-1,4,4α,5,6,7-hexahydrocyclopenta[f]indazol-5-yl]methyl}-1-phenylmethanesulfonamide], the pKi was 8.52.

`Cc1oncc1S(=O)(=O)N(CC#N)C[C@H]1CCC2=Cc3c(cnn3-c3ccc(F)cc3)C[C@@]21C` [Example 23, N-(cyanomethyl)-N-{[(4αR,5S)-1-(4-fluorophenyl)-4α-methyl-1,4,4α,5,6,7-hexahydrocyclopenta[f]indazol-5-yl]methyl}-5-methylisoxazole-4-sulfonamide] showed a pKi of 8.31.

Usually pKi stands for −log10 of the Ki, conventionally taken in molar units. Higher therefore signals a low Ki.

(Values after US8299048B2, “Hexahydrocyclopentyl[f]indazole sulfonamides and derivatives thereof as selective glucocorticoid receptor modulators” (Merck Sharp & Dohme Corp., priority 2008, dated 2012).)
